Here are results for eleven compounds from US8921398B2 (Boehringer Ingelheim International GmbH, priority 2011, dated 2014).

The experiment addresses T1, human GPR119 (Homo sapiens, UniProt Q8TDV5).
T1 construct: expression vector for human GPR119 cDNA (Acc. No. NP_848566); expressed in transfected cells
T1 sequence (Q8TDV5 1-335): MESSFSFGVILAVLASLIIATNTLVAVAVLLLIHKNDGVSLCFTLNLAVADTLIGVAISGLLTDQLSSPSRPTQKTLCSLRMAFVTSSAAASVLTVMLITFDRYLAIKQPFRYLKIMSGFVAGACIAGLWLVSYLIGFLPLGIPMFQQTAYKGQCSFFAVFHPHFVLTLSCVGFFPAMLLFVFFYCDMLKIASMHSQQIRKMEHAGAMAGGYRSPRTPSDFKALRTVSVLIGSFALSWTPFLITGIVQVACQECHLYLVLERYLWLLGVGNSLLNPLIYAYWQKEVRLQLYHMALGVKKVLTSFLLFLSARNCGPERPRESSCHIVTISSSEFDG
Put plainly: AlphaScreen cAMP assay in MIN6 cells stably transfected with human GPR119. To be noted: Min-6/hGPR119 cells, 45 minutes incubation at room temperature. In kind it is cell-based. The method, then: The compounds of formula I according to the invention modulate the activity of the G-protein-coupled receptor GPR119. The effect of the compounds on the activation of GPR119 and on the stimulation of intracellular cAMP concentration is determined using the AlphaScreen cAMP Assay Kit (Cat.No.#6760625R) made by PerkinElmer.
MIN6 cells [Miyazaki J et al. Endocrinology. 1990 July; 127(1):126-32] are stably transfected with an expression vector for human GPR119 cDNA (Acc. No. NP_848566). Min-6/hGPR119 cells are cultured in DMEM, 10% FBS, 50 μM β-mercaptoethanol, 0.3 mg/mL Geniticin, 2 mM GlutaMAX at 37° C. 5% CO2. For the assay, the cells are seeded in Optiplates (white, 384-well, 160W-barcoded, TC, sterile with lid, Cat.No.#6007688 (Perkin Elmer); 10000 cells/well; 50 μl). The plates covered with lids are then incubated for 24 hours at 37° C./5% CO2. After the medium is aspirated from the wells completely, 10 μl of the test compound are added, the compounds are diluted using stimulating buffer (140 mM NaCl, 3.6 mM KCl, 0.5 mM NaH2PO4, 0.5 mM MgSO4, 1.5 mM CaCl2, 10 mM Hepes, 5 mM NaHCO3; pH 7.4. 0.5 mM IBMX and 0.1% BSA, the final DMSO concentration is 1%). After 45 minutes incubation at room temperature (approx. 20° C.), the cAMP concentrations are determined using the AlphaScreen cAMP Assay Kit (Cat.No.#6760625R from PerkinElmer).
For orientation: Bead proximity is the source of the signal in Alpha formats.

As for `CC(C)(C)c1noc(N2CCC(N(C(=O)c3cnc(-c4cnco4)cn3)C3CC3)CC2)n1` [Example 32, 5-Oxazol-5-yl-pyrazine-2-carboxylic acid [1-(3-tert-butyl-[1,2,4]oxadiazol-5-yl)-piperidin-4-yl]-cyclopropyl-amide], the EC50 is 14 nM.
In the case of `CC(C)c1noc(N2CCC(N(C(=O)c3cnc(-c4cnco4)cn3)C3CC3)CC2)n1` [Example 33, 5-Oxazol-5-yl-pyrazine-2-carboxylic acid cyclopropyl-[1-(3-isopropyl-[1,2,4]oxadiazol-5-yl)-piperidin-4-yl]amide] it was 25 nM.
Then `CCc1cnc(N2CCC(N(C(=O)c3ccc(-c4cnco4)nc3)C3CC3)CC2)nc1` [Example 34, N-Cyclopropyl-N-[1-(5-ethyl-pyrimidin-2-yl)-piperidin-4-yl]-6-oxazol-5-yl-nicotinamide], with 27 nM; and `CC(C)c1noc(N2CCC(N(C(=O)c3ccc(-c4cnco4)nc3)C3CC3)CC2)n1` [Example 35, N-Cyclopropyl-N-[1-(3-isopropyl-[1,2,4]oxadiazol-5-yl)-piperidin-4-yl]-6-oxazol-5-yl-nicotinamide], with 33 nM; and `CC(C)(C)c1noc(N2CCC(N(C(=O)c3ccc(-c4cnco4)nc3)C3CC3)CC2)n1` [Example 36, N-[1-(3-tert-Butyl-[1,2,4]oxadiazol-5-yl)-piperidin-4-yl]-N-cyclopropyl-6-oxazol-5-yl-nicotinamide], with 46 nM.
In turn, `CCc1cnc(N2CCC(N(C(=O)c3ccc(-c4cnco4)nc3)C3CC3)CC2)cn1` [Example 37, N-Cyclopropyl-N-[1-(5-ethyl-pyrazin-2-yl)-piperidin-4-yl]-6-oxazol-5-yl-nicotinamide] came in with an EC50 of 59 nM.
Consider `CCc1cnc(N2CCC(N(C(=O)c3cnc(-c4cnco4)cn3)C3CC3)CC2)nc1` [Example 38, 5-Oxazol-5-yl-pyrazine-2-carboxylic acid cyclopropyl-[1-(5-ethyl-pyrimidin-2-yl)-piperidin-4-yl]-amide], for which the EC50 turned out to be 63 nM.
Then `CCCc1noc(N2CCC(N(C(=O)c3cnc(-c4cnco4)cn3)C3CC3)CC2)n1` [Example 39, 5-Oxazol-5-yl-pyrazine-2-carboxylic acid cyclopropyl-[1-(3-propyl-[1,2,4]oxadiazol-5-yl)-piperidin-4-yl]-amide], with 67 nM.
In the case of `CCCc1noc(N2CCC(N(C(=O)c3ccc(-c4cnco4)nc3)C3CC3)CC2)n1` [Example 40, N-Cyclopropyl-6-oxazol-5-yl-N-[1-(3-propyl-[1,2,4]oxadiazol-5-yl)-piperidin-4-yl]-nicotinamide] it was 89 nM.
On to `Cc1cnc(N2CCC(N(C(=O)c3ccc(-c4cnco4)nc3)C3CC3)CC2)nc1` [Example 41, N-Cyclopropyl-N-[1-(5-methyl-pyrimidin-2-yl)-piperidin-4-yl]-6-oxazol-5-yl-nicotinamide], for which a half-maximal effect (EC50) was put at 159 nM.
With `Cc1cnc(N2CCC(N(C(=O)c3ccc(-c4cnco4)nc3)C3CC3)CC2)cn1` [Example 42, N-Cyclopropyl-N-[1-(5-methyl-pyrazin-2-yl)-piperidin-4-yl]-6-oxazol-5-yl-nicotinamide], the EC50 amounted to 231 nM.

A word on the EC50: it is the concentration at which the effect is half-maximal. A low value points to greater potency.
